Numbers after ± are expanded uncertainties.
Test: osmotic coefficient (dimensionless); mn = molality of the nth substance listed, in mol/kg
Conditions: 303.15 K, 101.3 kPa, Liquid, Vapor-pressure osmometry (Knauer K-7000)

osmotic coefficient (m1 = 0.0476): 0.809 ± 0.064
osmotic coefficient (m1 = 0.0572): 0.804 ± 0.065
osmotic coefficient (m1 = 0.0765): 0.771 ± 0.066
osmotic coefficient (m1 = 0.0951): 0.73 ± 0.067
Compound: NC(=O)c1ccc[n+]([C@@H]2O[C@H](COP(=O)([O-])OP(=O)(O)OC[C@H]3O[C@@H](n4cnc5c(N)ncnc54)[C@H](O)[C@@H]3O)[C@@H](O)[C@H]2O)c1 [β-nicotinamide adenine dinucleotide] + O

— the NIST ThermoML archive (doi:10.1016/j.jct.2018.08.021)
